What was measured:
Settings in all cases: 72 h
Calu-3 [1] = assay: relative viability EC50 (midpoint between 100% and the lowest measured viability); higher = less toxic
HepG2 [2] = assay: as above
U2OS [3] = assay: as above
Caco-2 [4] = assay: as above
Vero E6 [5] = assay: as above
Calu-3 [6] = assay: cell viability relative to DMSO; higher = less toxic
HepG2 [7] = assay: as above
U2OS [8] = assay: as above
Caco-2 [9] = assay: as above
Vero E6 [10] = assay: as above
Calu-3 [11] = assay: drug sensitivity score (DSS) for viability; higher = more toxic; extreme values may be limits of the assay
HepG2 [12] = assay: as above
U2OS [13] = assay: as above
Caco-2 [14] = assay: as above
Vero E6 [15] = assay: as above

Structure (SMILES) | relative viability EC50 (Calu-3 [1]) | relative viability EC50 (HepG2 [2]) | relative viability EC50 (U2OS [3]) | relative viability EC50 (Caco-2 [4]) | relative viability EC50 (Vero E6 [5]) | cell viability (Calu-3 [6]; 1 nM) | cell viability (Calu-3 [6]; 10 nM) | cell viability (Calu-3 [6]; 100 nM) | cell viability (Calu-3 [6]; 1000 nM) | cell viability (Calu-3 [6]; 10000 nM) | cell viability (HepG2 [7]; 1 nM) | cell viability (HepG2 [7]; 10 nM) | cell viability (HepG2 [7]; 100 nM) | cell viability (HepG2 [7]; 1000 nM) | cell viability (HepG2 [7]; 10000 nM) | cell viability (U2OS [8]; 1 nM) | cell viability (U2OS [8]; 10 nM) | cell viability (U2OS [8]; 100 nM) | cell viability (U2OS [8]; 1000 nM) | cell viability (U2OS [8]; 10000 nM) | cell viability (Caco-2 [9]; 1 nM) | cell viability (Caco-2 [9]; 10 nM) | cell viability (Caco-2 [9]; 100 nM) | cell viability (Caco-2 [9]; 1000 nM) | cell viability (Caco-2 [9]; 10000 nM) | cell viability (Vero E6 [10]; 1 nM) | cell viability (Vero E6 [10]; 10 nM) | cell viability (Vero E6 [10]; 100 nM) | cell viability (Vero E6 [10]; 1000 nM) | cell viability (Vero E6 [10]; 10000 nM) | drug sensitivity score (Calu-3 [11]) | drug sensitivity score (HepG2 [12]) | drug sensitivity score (U2OS [13]) | drug sensitivity score (Caco-2 [14]) | drug sensitivity score (Vero E6 [15])
CCCC[N+]1(C)[C@@H]2C[C@@H](OC(=O)[C@H](CO)c3ccccc3)C[C@H]1[C@@H]1O[C@@H]12 (stereo not given in full) [butylscopolamine-bromide] | > 10 µM | > 10 µM | > 10 µM | > 10 µM | > 10 µM | 110% | 83.9% | 99.5% | 90.9% | 106% | 102% | 106% | 92.9% | 102% | 115% | 99.1% | 94.7% | 101% | 96.3% | 99.7% | 92.8% | 98.3% | 104% | 94.7% | 98.2% | 97.4% | 95.9% | 96.5% | 95.6% | 108% | 0 | 0 | 0 | 0 | 0
NC(=O)N1c2ccccc2C=Cc2ccccc21 [carbamazepine] | > 10 µM | > 10 µM | > 10 µM | > 10 µM | > 10 µM | 91.2% | 91.9% | 90.3% | 98.4% | 98.9% | 107% | 110% | 88.9% | 98.6% | 101% | 101% | 97.2% | 101% | 96.4% | 104% | 104% | 96.9% | 98.5% | 97.2% | 102% | 106% | 98.4% | 98.8% | 95.1% | 95.7% | 0 | 0 | 0 | 0 | 0
CCOC(=O)n1ccn(C)c1=S [carbimazole] | > 10 µM | > 10 µM | > 10 µM | > 10 µM | > 10 µM | 92.4% | 95.4% | 101% | 104% | 107% | 94.7% | 99.8% | 93.3% | 90.6% | 103% | 99.5% | 91% | 94.4% | 101% | 103% | 98% | 98.7% | 100% | 104% | 100% | 90.9% | 89.5% | 91.2% | 93.7% | 108% | 0 | 0 | 0 | 0 | 0

From the supplement of paper PMC13380429
